Experimental data taken from patent publication US20250281419A1, “LIPID AMINES” (ModernaTX, Inc., priority 2021, published 2025).

System: HeLa cells
Test: CFTR protein expression assay in HeLa cells (LNPs of Example 2, immunofluorescence)
Type: cell-based, Human
Conditions: compared to buffer (PBS) control, 5 h transfection, 24 h incubation, N=4 wells
Protocol: Lipid nanoparticles were prepared using ethanol drop nanoprecipitation followed by solvent exchange into suitable aqueous buffer using dialysis. An exemplary lipid nanoparticle composition can be prepared by a process where lipids are dissolved in ethanol at a concentration of 12.5 mM and molar ratios of 33:15:11:39.5:1.5 (e.g., ionizable lipid:SA46:phospholipid:cholesterol:PL1). Lipid to mRNA is maintained at a N/P ratio of 4.9. Then mRNA is diluted with 25 mM sodium acetate (pH 5.0) and combined with the lipid mixture at a volume ratio of 3:1 (aqueous: ethanol). Resulting formulations are dialyzed against 20 mM tris/8% sucrose/70 mM sodium chloride (pH 7.4) at a volume of 300 times that of the primary product using Slide-A-Lyzer dialysis cassettes (Thermo Scientific, Rockford, IL, USA) with a molecular cutoff of 10 KDa for at least 18 h. The first dialysis is carried out at room temperature in a digital orbital shaker (VWR, Radnor, PA, USA) at 85 rpm for 3 h and then dialyzed overnight at 4° C. Formulations are concentrated using Amicon ultra-centrifugal filters (EMD Millipore, Billerica, MA, USA), passed through a 0.22-μm filter and stored at 4° C. until use. Lipid nanoparticle solutions are typically adjusted to specific mRNA concentrations between 0.1 and 1 mg/mL. LNPs were prepared according to Example 2. To evaluate LNP cellular uptake and protein expression in vitro, HeLa cells from ATCC.org (ATCC CCL-2) are used. The cells are cultured in complete Minimum Essential Medium (MEM) and are plated in 96 well Cell Carrier Ultra plate with PDL coated surface (PerkinElmer) prior to running an experiment. Buffer control (PBS) and LNPs encapsulating cystic fibrosis transmembrane conductance regulator (CFTR) mRNA were dosed with MEM media in the absence of serum (N=4 replicate wells). LNP transfected cells were incubated for 5 h, followed by media removal and supplementation with complete MEM media. Cells were further incubated in complete MEM media overnight (24 h). Following 24 hr incubation, the cells were fixed with PFA and processed for immunofluorescence (IF) using an anti-CFTR rabbit monoclonal antibody. Briefly, the cells were permeabilized with 0.5% TX-100 for 10 min, blocked with 3% bovine serum albumin (BSA)+PBST for 1 hr at room temperature, and incubated with primary anti-CFTR monoclonal antibody overnight at 4° C. Following primary antibody incubation, the cells were incubated with Alexa 488 conjugated secondary antibody for 30 min, and stained with DAPI and HCS CellMask Blue stain. Between different incubation steps the cells were either washed with PBS or PBST. Cells were imaged using Opera Phoenix spinning disk confocal microscope (PerkinElmer), and CFTR protein expression was detected using the 488 nm channel. The image analysis was performed in Harmony 4.9, with main analysis output being CFTR intensity per cell. The results shown in Table 3a show fold-change in CFTR signal intensity per cell compared to buffer (PBS) control (nanoparticle composition: IL1:Lipid Amine:DSPC:Chol:PL1). The results shown in Table 3b show fold-change in CFTR signal intensity per cell compared to buffer (PBS) control (nanoparticle composition: IL1:Lipid Amine:DPPC:Chol:PL1).

[1] = LNP IL1:Lipid Amine:DPPC:Chol:PL1 with CFTR mRNA
[2] = LNP IL1:Lipid Amine:DSPC:Chol:PL1 with CFTR mRNA

Compound	Average fold-change in CFTR signal intensity per cell ± standard deviation [1] [fold-change]	Average fold-change in CFTR signal intensity per cell ± standard deviation [2] [fold-change]
CC[C@H](CC[C@@H](C)[C@H]1CC[C@H]2[C@@H]3CC=C4C[C@@H](OC(=O)NCC(C)(C)N)CC[C@]4(C)[C@H]3CC[C@]12C)C(C)C.Cl [SA55, (3S,8S,9S,10R,13R,14S,17R)-17-((2R,5R)-5-Ethyl-6-methylheptan-2-yl)-10,13-dimethyl-2,3,4,7,8,9,10,11,12,13,14,15,16,17-tetradecahydro-1H-cyclopenta[a]phenanthren-3-yl (2-amino-2-methylpropyl)carbamate Hydrochloride]	12.1 ± 0.7	4.9 ± 0.2
CC[C@H](CC[C@@H](C)[C@H]1CC[C@H]2[C@@H]3CC=C4C[C@@H](OC(=O)NCC5(N(C)C)CC5)CC[C@]4(C)[C@H]3CC[C@]12C)C(C)C [SA54, (3S,8S,9S,10R,13R,14S,17R)-17-((2R,5R)-5-Ethyl-6-methylheptan-2-yl)-10,13-dimethyl-2,3,4,7,8,9,10,11,12,13,14,15,16,17-tetradecahydro-1H-cyclopenta[a]phenanthren-3-yl ((1-(dimethylamino)cyclopropyl)methyl)carbamate]	1.3 ± 0.1	1.5 ± 0.1
CC[C@H](CC[C@@H](C)[C@H]1CC[C@H]2[C@@H]3CC=C4C[C@@H](OC(=O)NCCOCCN(C)C)CC[C@]4(C)[C@H]3CC[C@]12C)C(C)C [SA49, (3S,8S,9S,10R,13R,14S,17R)-17-((2R,5R)-5-Ethyl-6-methylheptan-2-yl)-10,13-dimethyl-2,3,4,7,8,9,10,11,12,13,14,15,16,17-tetradecahydro-1H-cyclopenta[a]phenanthren-3-yl (2-(2-(dimethylamino)ethoxy)ethyl)carbamate]	1 ± 0.0	1.1 ± 0.0
CC[C@H](CC[C@@H](C)[C@H]1CC[C@H]2[C@@H]3CC=C4C[C@@H](OC(=O)NCC(C)(C)N(C)C)CC[C@]4(C)[C@H]3CC[C@]12C)C(C)C [SA53, (3S,8S,9S,10R,13R,14S,17R)-17-((2R,5R)-5-Ethyl-6-methylheptan-2-yl)-10,13-dimethyl-2,3,4,7,8,9,10,11,12,13,14,15,16,17-tetradecahydro-1H-cyclopenta[a]phenanthren-3-yl (2-(dimethylamino)-2-methylpropyl)carbamate]	13.0 ± 1.2	4.4 ± 0.8
CC[C@H](CC[C@@H](C)[C@H]1CC[C@H]2[C@@H]3CC=C4C[C@@H](OC(=O)NCCN(CCO)CCO)CC[C@]4(C)[C@H]3CC[C@]12C)C(C)C [SA48, (3S,8S,9S,10R,13R,14S,17R)-17-((2R,5R)-5-Ethyl-6-methylheptan-2-yl)-10,13-dimethyl-2,3,4,7,8,9,10,11,12,13,14,15,16,17-tetradecahydro-1H-cyclopenta[a]phenanthren-3-yl (2-(bis(2-hydroxyethyl)amino)ethyl)carbamate]	5.3 ± 1.0	4.4 ± 0.3
CC[C@H](CC[C@@H](C)[C@H]1CC[C@H]2[C@@H]3CC=C4C[C@@H](OC(=O)NCCCN(C)C)CC[C@]4(C)[C@H]3CC[C@]12C)C(C)C [SA46, (3S,8S,9S,10R,13R,14S,17R)-17-((2R,5R)-5-Ethyl-6-methylheptan-2-yl)-10,13-dimethyl-2,3,4,7,8,9,10,11,12,13,14,15,16,17-tetradecahydro-1H-cyclopenta[a]phenanthren-3-yl (3-(dimethylamino)propyl)carbamate]	10.2 ± 0.2	4.7 ± 0.2
